Experimental data as given in ChEMBL document CHEMBL5303573, “Mapping human microbiome drug metabolism by gut bacteria and their genes” (Nature, 2019).

Assays:
[1] = The drug is tested on Bifidobacterium ruminantium strain: fecal isolate for biotransformation. The drug concentrations were measured before and after a 12-h incubation by liquid-chromatography-coupled mass spectrometry (LC–MS); details: 2 µM
[2] = The drug is tested on Enterobacter cancerogenus strain: ATCC35316 for biotransformation. The drug concentrations were measured before and after a 12-h incubation by liquid-chromatography-coupled mass spectrometry (LC–MS); details: 2 µM
[3] = parabacteroides johnsonii, 12 h, 2 µM
Description: The drug is tested on Parabacteroides johnsonii strain: DSM18315 for biotransformation. The drug concentrations were measured before and after a 12-h incubation by liquid-chromatography-coupled mass spectrometry (LC–MS)

[4] = The drug is tested on Eubacterium rectale strain: ATCC33656 for biotransformation. The drug concentrations were measured before and after a 12-h incubation by liquid-chromatography-coupled mass spectrometry (LC–MS); details: agathobacter rectalis, 2 µM
[5] = bacteroides fragilis, 12 h, 2 µM
Description: The drug is tested on Bacteroides fragilis strain: DS-208 for biotransformation. The drug concentrations were measured before and after a 12-h incubation by liquid-chromatography-coupled mass spectrometry (LC–MS)

[6] = The drug is tested on Bacteroides xylanisolvens strain: DSM18836 for biotransformation. The drug concentrations were measured before and after a 12-h incubation by liquid-chromatography-coupled mass spectrometry (LC–MS); details: 2 µM
[7] = The drug is tested on Clostridium ramosum strain: DSM1402 for biotransformation. The drug concentrations were measured before and after a 12-h incubation by liquid-chromatography-coupled mass spectrometry (LC–MS); details: thomasclavelia ramosa, 2 µM

Compound | Bacterial Biotransformation [1] | Bacterial Biotransformation [2] | Bacterial Biotransformation [3] | Bacterial Biotransformation [4] | Bacterial Biotransformation [5] | Bacterial Biotransformation [6] | Bacterial Biotransformation [7]
CCOC(=O)[C@H](CCc1ccccc1)N[C@@H](C)C(=O)N1Cc2ccccc2C[C@H]1C(=O)O | Compound metabolized | Compound NOT metabolized | Compound metabolized | Compound NOT metabolized | Compound metabolized | Compound metabolized | –
CCN(CC)CCNC(=O)c1ccc(NC(C)=O)cc1 [ACECAINIDE] | – | – | Compound NOT metabolized | Compound NOT metabolized | Compound NOT metabolized | Compound NOT metabolized | Compound NOT metabolized
CN(C)CCc1c[nH]c2ccc(CS(=O)(=O)N3CCCC3)cc12 [ALMOTRIPTAN] | – | Compound NOT metabolized | – | Compound NOT metabolized | Compound NOT metabolized | Compound NOT metabolized | Compound NOT metabolized
C=CCc1ccccc1OCC(O)CNC(C)C (configuration not stated) [ALPRENOLOL] | Compound metabolized | – | – | Compound NOT metabolized | Compound NOT metabolized | Compound NOT metabolized | –
CCC1(c2ccc(N)cc2)CCC(=O)NC1=O (configuration not stated) [AMINOGLUTETHIMIDE] | – | Compound NOT metabolized | Compound NOT metabolized | Compound NOT metabolized | Compound NOT metabolized | Compound NOT metabolized | Compound NOT metabolized
O=C1CN2Cc3c(ccc(Cl)c3Cl)N=C2N1 [ANAGRELIDE] | – | Compound NOT metabolized | Compound metabolized | – | Compound NOT metabolized | Compound NOT metabolized | Compound NOT metabolized
CC(C)NCC(O)COc1ccc(CC(N)=O)cc1 (configuration not stated) [ATENOLOL] | Compound NOT metabolized | Compound NOT metabolized | Compound NOT metabolized | Compound NOT metabolized | – | Compound NOT metabolized | –
CN(C)C(=O)Oc1cc(OC(=O)N(C)C)cc(C(O)CNC(C)(C)C)c1 (configuration not stated) [BAMBUTEROL] | – | Compound NOT metabolized | Compound NOT metabolized | Compound NOT metabolized | Compound NOT metabolized | Compound NOT metabolized | Compound NOT metabolized
NS(=O)(=O)c1cc2c(cc1Cl)N=C(CSCc1ccccc1)NS2(=O)=O [BENZTHIAZIDE] | Compound NOT metabolized | Compound NOT metabolized | – | – | Compound NOT metabolized | – | –
CC(C)(Oc1ccc(CCNC(=O)c2ccc(Cl)cc2)cc1)C(=O)O [BEZAFIBRATE] | Compound metabolized | Compound metabolized | Compound NOT metabolized | Compound NOT metabolized | Compound metabolized | Compound metabolized | –
CC(C)NCC(O)COc1ccc(COCCOC(C)C)cc1.CC(C)NCC(O)COc1ccc(COCCOC(C)C)cc1.O=C(O)/C=C/C(=O)O (configuration not stated) [BISOPROLOL FUMARATE] | Compound NOT metabolized | – | Compound NOT metabolized | Compound NOT metabolized | Compound NOT metabolized | Compound NOT metabolized | Compound NOT metabolized
CCCC1O[C@@H]2C[C@H]3[C@@H]4CCC5=CC(=O)C=C[C@]5(C)[C@H]4[C@@H](O)C[C@]3(C)[C@]2(C(=O)CO)O1 (some centres not stated) [BUDESONIDE] | Compound NOT metabolized | Compound NOT metabolized | Compound metabolized | Compound NOT metabolized | – | – | –
CN(C)CCOC(c1ccc(Cl)cc1)c1ccccn1.O=C(O)/C=C\C(=O)O (configuration not stated) [CARBINOXAMINE MALEATE] | – | Compound NOT metabolized | Compound NOT metabolized | – | Compound NOT metabolized | Compound NOT metabolized | Compound NOT metabolized
CN1C(=O)CCS(=O)(=O)C1c1ccc(Cl)cc1 (configuration not stated) [CHLORMEZANONE] | Compound metabolized | Compound NOT metabolized | – | – | Compound NOT metabolized | Compound NOT metabolized | Compound NOT metabolized
Br.CN(C)CCCC1(c2ccc(F)cc2)OCc2cc(C#N)ccc21 (configuration not stated) [CITALOPRAM HYDROBROMIDE] | Compound NOT metabolized | – | Compound NOT metabolized | Compound NOT metabolized | Compound NOT metabolized | – | Compound NOT metabolized
CN1CCC[C@@H]1CCO[C@](C)(c1ccccc1)c1ccc(Cl)cc1.O=C(O)/C=C/C(=O)O [CLEMASTINE FUMARATE] | – | – | Compound NOT metabolized | – | Compound metabolized | Compound metabolized | Compound NOT metabolized
CC(C)(C)NCC(O)c1cc(Cl)c(N)c(Cl)c1 (configuration not stated) [CLENBUTEROL] | – | Compound NOT metabolized | Compound NOT metabolized | Compound NOT metabolized | Compound NOT metabolized | Compound NOT metabolized | Compound NOT metabolized
C[N+]12CCC(CC1)C(OC(=O)C(O)(c1ccccc1)c1ccccc1)C2.[Br-] (configuration not stated) [CLIDINIUM BROMIDE] | – | – | Compound NOT metabolized | – | Compound NOT metabolized | Compound NOT metabolized | –
COC(=O)[C@H](c1ccccc1Cl)N1CCc2sccc2C1.O=S(=O)(O)O [CLOPIDOGREL BISULFATE] | – | Compound NOT metabolized | Compound metabolized | – | Compound metabolized | Compound metabolized | –
COc1cc2c(c(OC)c1OC)-c1ccc(OC)c(=O)cc1[C@@H](NC(C)=O)CC2 [COLCHICINE] | Compound NOT metabolized | – | Compound metabolized | Compound NOT metabolized | Compound metabolized | – | Compound NOT metabolized
O=P1(N(CCCl)CCCl)NCCCO1 (configuration not stated) [CYCLOPHOSPHAMIDE ANHYDROUS] | Compound NOT metabolized | Compound NOT metabolized | Compound NOT metabolized | Compound NOT metabolized | Compound NOT metabolized | Compound NOT metabolized | –
CN1C[C@H](C(=O)N[C@]2(C)O[C@@]3(O)[C@@H]4CCCN4C(=O)[C@H](Cc4ccccc4)N3C2=O)C=C2c3cccc4[nH]cc(c34)C[C@H]21.CN1C[C@H](C(=O)N[C@]2(C)O[C@@]3(O)[C@@H]4CCCN4C(=O)[C@H](Cc4ccccc4)N3C2=O)C=C2c3cccc4[nH]cc(c34)C[C@H]21.O=C(O)C(O)C(O)C(=O)O [ERGOTAMINE TARTRATE] | Compound metabolized | Compound metabolized | Compound metabolized | – | Compound metabolized | Compound metabolized | Compound metabolized
CC#C[C@]1(O)CC[C@H]2[C@@H]3CCC4=CC(=O)CCC4=C3[C@@H](c3ccc(N(C)C)cc3)C[C@@]21C [MIFEPRISTONE] | – | Compound NOT metabolized | Compound NOT metabolized | Compound NOT metabolized | Compound NOT metabolized | – | Compound NOT metabolized
COc1ccc2c(c1OC)C(=O)O[C@@H]2[C@H]1c2c(cc3c(c2OC)OCO3)CCN1C [NOSCAPINE] | Compound metabolized | Compound metabolized | Compound metabolized | – | Compound metabolized | Compound metabolized | Compound NOT metabolized
CCCc1nc(C(C)(C)O)c(C(=O)OCc2oc(=O)oc2C)n1Cc1ccc(-c2ccccc2-c2nnn[nH]2)cc1 [OLMESARTAN MEDOXOMIL] | – | Compound metabolized | Compound metabolized | Compound metabolized | Compound metabolized | Compound metabolized | –
COc1cc(NC(C)CCCN)c2ncccc2c1.O=P(O)(O)O.O=P(O)(O)O (configuration not stated) [PRIMAQUINE PHOSPHATE] | Compound metabolized | – | Compound metabolized | Compound NOT metabolized | Compound NOT metabolized | Compound metabolized | –
Cc1nc2n(c(=O)c1CCN1CCC(c3noc4cc(F)ccc34)CC1)CCCC2 [RISPERIDONE] | – | Compound metabolized | Compound NOT metabolized | Compound metabolized | Compound metabolized | Compound NOT metabolized | –
CN1CCN(CC/C=C2/c3ccccc3Sc3ccc(S(=O)(=O)N(C)C)cc32)CC1 [THIOTHIXENE] | – | Compound metabolized | Compound metabolized | Compound NOT metabolized | Compound NOT metabolized | Compound metabolized | Compound metabolized
